The record followed here is US20060173009A1, “Agent inducing increase in bone mass” (priority 2003, published 2006).

Experiment [1] concerns osteoporosis model (rat OVX). Kind of experiment: Osteoporosis model (rat OVX), Test 1: 12 weeks administration, compound A and incadronate. It is filed as in vivo. The settings on record: for femoral bone strength (three-point bending test) / femoral cortical bone mineral density (pQCT) / femoral cortical bone thickness (pQCT): OVX rats, compound A 30 mg/kg twice a day oral, incadronate 1 mg/kg once a day oral; for femoral bone strength (three-point bending test): in comparison with Control Group 1 (FIG. 1); for femoral cortical bone mineral density (pQCT): in comparison with Control Group 1 (FIG. 2); for femoral cortical bone thickness (pQCT): in comparison with Control Group 1 (FIG. 3). The procedure: (§1) Female SD rats of 16 weeks of age (Charles River Japan) were used in the test. Under anesthesia, both sides of ovaries were exposed, and ovaries of all groups excluding the sham operation group were ligated and extracted. In the sham operation group, only an operation of exposing ovaries to the outside of abdomen was carried out.
(§2) Preparation of the aforementioned model was carried out by referring to the method of Kalu et al., (Bone Miner., vol. 15, p. 175 (1991)) and the method of Frost et al., (Bone Miner., vol. 18, p. 227 (1992)).
Before carrying out the ovariectomy (OVX), bone mineral density at 5 mm from the tibial proximal end was measured by pQCT. By leaving for 8 weeks after the OVX, significant reduction of the bone mineral density was confirmed. […] The bone density was measured every 4 weeks after the administration, and urine samples were collected during 24 hours from the previous day of the completion of observation period. After completion of the urine collection, they were sacrificed by exsanguinations under ether anesthesia, and samples were collected.
Bone strength of the femoral diaphysis was measured by three-point bending test (TK-252c, mfd. by Muromachi Kikai). A femur was gently put on a supporting table of 20 mm in distance between supporting points, a bending load was applied on the midpoint of femur at a rate of 10 mm/min, and a load-deformation curve was recorded until its breakage. Maximum value of the load-deformation curve was used as the ultimate force, and the slope of the linear portion of the load-defomation curve was used as the stiffness.
Using a peripheral quantitative computed tomography (PQCT, XCT960A, mfd. by Norland-Stratec), cross-section of the bone was scaned, and bone mineral density and the like various parameters were calculated by analyzing the image.
As a bone metabolism marker, measurement of lysylpyridinoline (deoxypyridinoline hereinafter) value was carried out by SRL MediSearch using an HPLC method (Uebelhart, D et al., Bone Miner., vol. 8, p. 87 (1990)). In order to exclude influence of urine volume, the thus obtained deoxypyridinoline value was corrected by dividing the value by urine creatinine concentration or multiplying the 24 hour urine volume.
The compound of Production Example 93 (6-(4-fluoropiperidin-1-yl)-3-(6-methoxypyridin-2-yl)-1,2,4-triazolo[4,3-b]pyridazine: to be referred to as compound A hereinafter) which is a typical compound of the compound (I) was used as the non-living body-derived non-peptide osteoblast differentiation promoting compound of the invention, and incadronate (Bisphonal (registered trademark)) as the bisphosphonate, respectively. Groups in which the compound A or incadronate alone and a parathyroid hormone hPTH(1-34) are to be administered were used as comparative groups. In addition, the drug-non-administered OVX group and the sham operation group were used as control groups. The compound A was orally administered twice a day as a 0.5% methyl cellulose suspension of 30 mg/5 ml/kg, and incadronate was orally administered once a day as an aqueous solution of 1 mg/2.5 ml/kg. The hPTH(1-34) was subcutaneously administered once a day as a physiological saline solution of 3 μg/1 ml/kg. To the control groups was orally administered 0.5% methyl cellulose twice a day.

The test system of experiment [2] is osteoporosis model (rat OVX). In words: Osteoporosis model (rat OVX), Test 2: 4 weeks administration, compound A and alendronate. It is filed as in vivo. The settings on record: Test 2, OVX rats, 24 hour urine 5 weeks after the administration, EIA method (FIG. 7). On the procedure: as §1, §2
Before carrying out the ovariectomy (OVX), bone mineral density of tibial metaphysis at 5 mm from the tibial proximal end was measured by pQCT. By leaving for 8 weeks after the OVX, significant reduction of the bone mineral density of tibial metaphysis was confirmed by re-measurement. […] After 4 weeks of the administration, the cortical bone thickness and bone mineral density of the tibial diaphysis were measured in the same manner as described in the above. In addition, urine samples were collected during 24 hours 5 weeks after the administration, and the urinary deoxypyridinoline was measured by an EIA method (Osteolinks “DPD”, mfd. by Sumitomo Pharmaceutical Biomedical). […]

Regarding `COc1cccc(-c2nnc3ccc(N4CCC(F)CC4)nn23)n1` [compound A, 6-(4-fluoropiperidin-1-yl)-3-(6-methoxypyridin-2-yl)-1,2,4-triazolo[4,3-b]pyridazine], in experiment [1], the “femoral bone strength (three-point bending test)” value was “increasing tendency”, the “femoral cortical bone mineral density (pQCT)” value is given as “increasing tendency” and the “femoral cortical bone thickness (pQCT)” value is “increasing tendency”. The “urinary deoxypyridinoline value (urine volume correction), bone resorption index” value in experiment [1] (Test 1, OVX rats, 24 hour urine, HPLC method (FIG. 4)) is recorded as “increased”. The “urinary deoxypyridinoline value (urine volume correction), bone resorption index” value in experiment [2] is given as “increased”.

On to `O=P(O)(O)C(NC1CCCCCC1)P(=O)(O)O` [incadronate, reference compound], for which, in experiment [1], the “femoral bone strength (three-point bending test)” value is recorded as “increasing tendency”, the “femoral cortical bone mineral density (pQCT)” value is listed as “increasing tendency” and the “femoral cortical bone thickness (pQCT)” value is recorded as “increasing tendency”.
